In ChEMBL document CHEMBL1201862, “PubChem BioAssay data set” (2004) one finds IC50 data, which are given here for two compounds.

The structures appear in SMILES notation. The source made the active and inactive calls. No stated cut-off is given here; in the data, actives have a measured IC50 and inactives only a lower limit.

In this assay the target is Envelope glycoprotein gp160 (Human immunodeficiency virus 1, UniProt Q6QLK5). The assay is described as follows: inhibitors of HIV fusion peptide binding, primary screen, biochemical, uHTS, fluorescence dequenching (AID 1986).
Chain of Envelope glycoprotein gp160 (Q6QLK5 whole entry, the tested form may be a part): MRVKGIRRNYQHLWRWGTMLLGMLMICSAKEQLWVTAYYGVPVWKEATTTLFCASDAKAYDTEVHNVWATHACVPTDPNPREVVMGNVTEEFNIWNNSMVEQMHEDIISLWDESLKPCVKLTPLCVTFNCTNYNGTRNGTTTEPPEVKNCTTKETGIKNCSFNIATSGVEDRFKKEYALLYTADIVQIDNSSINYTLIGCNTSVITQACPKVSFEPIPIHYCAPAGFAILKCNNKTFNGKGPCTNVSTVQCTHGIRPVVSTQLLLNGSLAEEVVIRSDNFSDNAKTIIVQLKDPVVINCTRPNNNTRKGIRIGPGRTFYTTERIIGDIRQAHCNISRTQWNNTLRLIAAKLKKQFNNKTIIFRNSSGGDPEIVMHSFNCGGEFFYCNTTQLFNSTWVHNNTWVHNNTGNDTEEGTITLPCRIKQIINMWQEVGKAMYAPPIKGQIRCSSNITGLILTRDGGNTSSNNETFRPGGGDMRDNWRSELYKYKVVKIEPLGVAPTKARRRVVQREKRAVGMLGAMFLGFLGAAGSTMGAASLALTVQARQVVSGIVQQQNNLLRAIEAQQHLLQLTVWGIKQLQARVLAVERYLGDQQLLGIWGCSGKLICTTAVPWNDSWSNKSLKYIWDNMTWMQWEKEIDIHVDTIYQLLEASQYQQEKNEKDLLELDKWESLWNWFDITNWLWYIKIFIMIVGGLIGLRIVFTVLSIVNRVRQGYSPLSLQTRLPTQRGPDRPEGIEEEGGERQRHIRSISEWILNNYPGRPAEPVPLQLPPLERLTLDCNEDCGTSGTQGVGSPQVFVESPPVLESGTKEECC

Usually IC50 stands for the concentration needed to halve the response being measured. In the case of `COc1cc(/C=C2\C(=N)N3N=C(S(C)(=O)=O)SC3=NC2=O)ccc1OC(=O)c1cccs1`, the 50% inhibitory concentration (IC50) is 12.1 µM (active).
The figure for `O=C(O)c1ccccc1-c1ccccc1C(=O)Nc1ccc(-c2nc3cc(Cl)ccc3o2)cc1` is 24.4 µM (active).
